The source of these data is US20160251332A1, “Herbicidal Compounds” (SYNGENTA PARTICIPATIONS AG, priority 2013, published 2016).

Common to all, as to assay type: in vivo
Assay [1] concerns Amaranthus retroflexus. The experiment in a line: Post-emergence herbicidal activity, AMARE. The conditions noted are these: Application post-emergence, 1000 g/Ha, evaluated after 13 days, scale 0-5. How it is done:
(§1) Seeds of a variety of test species were sown in standard soil in pots. After 8 days cultivation (post-emergence) under controlled conditions in a glasshouse (at 24/16° C., day/night; 14 hours light; 65% humidity), the plants were sprayed with an aqueous spray solution derived from the formulation of the technical active ingredient in acetone/water (50:50) solution containing 0.5% Tween 20 (polyoxyethelyene sorbitan monolaurate, CAS RN 9005-64-5). The test plants were then grown in a glasshouse under controlled conditions (at 24/16° C., day/night; 14 hours light; 65% humidity) and watered twice daily. After 13 days, the test was evaluated (5=total damage to plant; 0=no damage to plant).

The subject of assay [2] is Abutilon theophrasti. The assay can be described thus: Pre-emergence herbicidal activity, ABUTH. The conditions noted are these: Application pre-emergence, 1000 g/Ha, evaluated after 13 days, scale 0-5. How it is done:
as §1, with “After” for “After 8 days”, “for one day (pre-emergence)” for “(post-emergence)”

Assay [3] concerns Amaranthus retroflexus. The experiment in a line: Pre-emergence herbicidal activity, AMARE. The conditions noted are these: Application pre-emergence, 1000 g/Ha, evaluated after 13 days, scale 0-5. How it is done:
as §1, with “After” for “After 8 days”, “for one day (pre-emergence)” for “(post-emergence)”

Assay [4] relates to Abutilon theophrasti. The experiment in a line: Post-emergence herbicidal activity, ABUTH. The conditions noted are these: Application post-emergence, 1000 g/Ha, evaluated after 13 days, scale 0-5. Here is the method:
as §1

The subject of assay [5] is Echinochloa crus-galli. The assay can be described thus: Post-emergence herbicidal activity, ECHCG. The conditions noted are these: Application post-emergence, 1000 g/Ha, evaluated after 13 days, scale 0-5. How it is done:
as §1

Assay [6] has as its system Zea mays. The assay can be described thus: Post-emergence herbicidal activity, ZEAMX. The conditions noted are these: Application post-emergence, 1000 g/Ha, evaluated after 13 days, scale 0-5. Here is the method:
as §1

The subject of assay [7] is Zea mays. The experiment in a line: Pre-emergence herbicidal activity, ZEAMX. The conditions noted are these: Application pre-emergence, 1000 g/Ha, evaluated after 13 days, scale 0-5. How it is done:
as §1, with “After” for “After 8 days”, “for one day (pre-emergence)” for “(post-emergence)”

Assay [8] relates to Echinochloa crus-galli. The experiment in a line: Pre-emergence herbicidal activity, ECHCG. The conditions noted are these: Application pre-emergence, 1000 g/Ha, evaluated after 13 days, scale 0-5. Here is the method:
as §1, with “After” for “After 8 days”, “for one day (pre-emergence)” for “(post-emergence)”

Assay [9] has as its system Setaria faberi. The assay can be described thus: Pre-emergence herbicidal activity, SETFA. The conditions noted are these: Application pre-emergence, 1000 g/Ha, evaluated after 13 days, scale 0-5. Here is the method: as §1, with “After” for “After 8 days”, “for one day (pre-emergence)” for “(post-emergence)”
Assay [10] relates to Alopecurus myosuroides. The assay can be described thus: Pre-emergence herbicidal activity, ALOMY. The conditions noted are these: Application pre-emergence, 1000 g/Ha, evaluated after 13 days, scale 0-5. How it is done:
as §1, with “After” for “After 8 days”, “for one day (pre-emergence)” for “(post-emergence)”

Assay [11] has as its system Alopecurus myosuroides. The assay can be described thus: Post-emergence herbicidal activity, ALOMY. The conditions noted are these: Application post-emergence, 1000 g/Ha, evaluated after 13 days, scale 0-5. Here is the method: as §1
The test system of assay [12] is Setaria faberi. The assay can be described thus: Post-emergence herbicidal activity, SETFA. The conditions noted are these: Application post-emergence, 1000 g/Ha, evaluated after 13 days, scale 0-5. Here is the method:
as §1

`CN1CC(O)N(c2cc(C(C)(F)F)ccn2)C1=O` (stereo not shown) [Compound A37]: the AMARE damage score with Amaranthus retroflexus [1] and in the assay on Amaranthus retroflexus [3] was 5 in each case. The ABUTH damage score in the assay on Abutilon theophrasti [2] and in the assay on Abutilon theophrasti [4] was 5 in each case. The results for the ECHCG damage score in the assay on Echinochloa crus-galli [5] and with Echinochloa crus-galli [8] were 4 and 3, respectively. Besides, the ZEAMX damage score is listed as 4 in the assay with Zea mays [6] and 2 with Zea mays [7]. Moreover, the SETFA damage score in the assay with Setaria faberi [9] amounted to 1; with Setaria faberi [12], 5. The values for the ALOMY damage score in the assay with Alopecurus myosuroides [10] and in the assay on Alopecurus myosuroides [11] were 4 and 5, respectively.

As for `CN1CC(O)N(c2cc(C(F)(F)F)c(-c3cccc(NS(C)(=O)=O)c3)cn2)C1=O` (stereo not shown) [Compound A8], the results for the AMARE damage score in the assay on Amaranthus retroflexus [1] and in the assay on Amaranthus retroflexus [3] were 5 and 2, respectively. Also, the ABUTH damage score in the assay with Abutilon theophrasti [2] was 2; with Abutilon theophrasti [4] it was 4. Also, the ECHCG damage score in the assay on Echinochloa crus-galli [5] and with Echinochloa crus-galli [8] was 1 each time. In addition, the results for the ZEAMX damage score in the assay with Zea mays [6] and in the assay on Zea mays [7] were 1 and 2, respectively. For the same molecule, the values for the SETFA damage score with Setaria faberi [9] and in the assay on Setaria faberi [12] were 3 and 1, respectively. Further, the ALOMY damage score in the assay with Alopecurus myosuroides [10] and with Alopecurus myosuroides [11] was 1 each time.

With `CN1CC(O)N(c2cc(C(C)(C)F)ccn2)C1=O` (stereo not shown) [Compound A38], the AMARE damage score in the assay with Amaranthus retroflexus [1] and with Amaranthus retroflexus [3] was 5 throughout. In addition, the ABUTH damage score in the assay with Abutilon theophrasti [2] and in the assay with Abutilon theophrasti [4] was 5 throughout. Further, the ECHCG damage score with Echinochloa crus-galli [5] is 5; in the assay with Echinochloa crus-galli [8] it was 4. Further, the ZEAMX damage score is 4 in the assay with Zea mays [6] and 0 with Zea mays [7]. The SETFA damage score is 4 in the assay with Setaria faberi [9] and 5 in the assay on Setaria faberi [12]. The ALOMY damage score is recorded as 4 with Alopecurus myosuroides [10] and 5 in the assay with Alopecurus myosuroides [11].

With `COc1cnc(N2C(=O)N(C)CC2O)cc1C(F)(F)F` (stereo not shown) [Compound A39], the AMARE damage score in the assay on Amaranthus retroflexus [1] and with Amaranthus retroflexus [3] was 5 throughout. For the same molecule, the ABUTH damage score in the assay on Abutilon theophrasti [2] and in the assay with Abutilon theophrasti [4] was 5 throughout. For the same molecule, the figures for the ECHCG damage score with Echinochloa crus-galli [5] and in the assay on Echinochloa crus-galli [8] were 5 and 4, respectively. In addition, the figures for the ZEAMX damage score with Zea mays [6] and in the assay on Zea mays [7] were 4 and 2, respectively. In addition, the SETFA damage score in the assay with Setaria faberi [9] is given as 4; in the assay on Setaria faberi [12], 5. For the same molecule, the ALOMY damage score in the assay with Alopecurus myosuroides [10] was 4; in the assay with Alopecurus myosuroides [11], 5.

Take `CN1CC(O)N(c2cc(C(F)(F)F)c(-c3ccc(F)cc3)cn2)C1=O` (stereo not shown) [Compound A2]: the AMARE damage score with Amaranthus retroflexus [1] and with Amaranthus retroflexus [3] was 5 each time. In addition, the ABUTH damage score in the assay with Abutilon theophrasti [2] turned out to be 4; in the assay on Abutilon theophrasti [4], 5. Also, the ECHCG damage score with Echinochloa crus-galli [5] and in the assay with Echinochloa crus-galli [8] was 5 in each case. The ZEAMX damage score with Zea mays [6] is on record as 4; with Zea mays [7], 5. For the same molecule, the SETFA damage score in the assay on Setaria faberi [9] and in the assay on Setaria faberi [12] was 5 each time. Moreover, the values for the ALOMY damage score in the assay with Alopecurus myosuroides [10] and with Alopecurus myosuroides [11] were 4 and 5, respectively.

For the molecule `CN1CC(O)N(c2cc(C(F)(F)F)c(-c3ccncc3C#N)cn2)C1=O` (stereo not shown) [Compound A29], the AMARE damage score with Amaranthus retroflexus [1] and in the assay on Amaranthus retroflexus [3] was 5 in each case. The ABUTH damage score in the assay on Abutilon theophrasti [2] and with Abutilon theophrasti [4] was 5 in each case. Besides, the ECHCG damage score in the assay with Echinochloa crus-galli [5] and with Echinochloa crus-galli [8] was 5 each time. Also, the ZEAMX damage score with Zea mays [6] stood at 4; in the assay on Zea mays [7], 3. The SETFA damage score with Setaria faberi [9] and in the assay on Setaria faberi [12] was 5 each time.

As to `COc1ccc(-c2cnc(N3C(=O)N(C)CC3O)cc2C(F)(F)F)c(OC)n1` (stereo not shown) [Compound A25], the AMARE damage score in the assay with Amaranthus retroflexus [1] and with Amaranthus retroflexus [3] was 5 each time. In addition, the ABUTH damage score in the assay with Abutilon theophrasti [2] and in the assay with Abutilon theophrasti [4] was 5 throughout. The ECHCG damage score in the assay on Echinochloa crus-galli [5] and with Echinochloa crus-galli [8] was 5 each time. For the same molecule, the ZEAMX damage score in the assay on Zea mays [6] and in the assay on Zea mays [7] was 2 in each case. Moreover, the SETFA damage score in the assay on Setaria faberi [9] worked out at 3; in the assay with Setaria faberi [12], 5.

Take `CN1CC(O)N(c2cc(C(F)(F)F)c(C(=O)NC(C)(C)C)cn2)C1=O` (stereo not shown) [Compound A43]: the AMARE damage score with Amaranthus retroflexus [1] and in the assay with Amaranthus retroflexus [3] was 5 each time. Also, the ABUTH damage score in the assay with Abutilon theophrasti [2] and with Abutilon theophrasti [4] was 5 throughout. Also, the ECHCG damage score in the assay with Echinochloa crus-galli [5] and with Echinochloa crus-galli [8] was 5 in each case. For the same molecule, the ZEAMX damage score in the assay with Zea mays [6] came to 5; in the assay with Zea mays [7], 2. Further, the SETFA damage score in the assay with Setaria faberi [9] and with Setaria faberi [12] was 5 in each case.

For `CN1CC(O)N(c2cc(C(F)(F)F)c(-c3ccc(F)nc3)cn2)C1=O` (stereo not shown) [Compound A32], the AMARE damage score in the assay with Amaranthus retroflexus [1] and with Amaranthus retroflexus [3] was 5 throughout. For the same molecule, the ABUTH damage score in the assay with Abutilon theophrasti [2] and with Abutilon theophrasti [4] was 5 throughout. Besides, the ECHCG damage score in the assay with Echinochloa crus-galli [5] and in the assay on Echinochloa crus-galli [8] was 5 throughout. In addition, the values for the ZEAMX damage score in the assay on Zea mays [6] and in the assay with Zea mays [7] were 5 and 3, respectively. In addition, the SETFA damage score in the assay with Setaria faberi [9] and in the assay on Setaria faberi [12] was 5 throughout.

Turning to `CN1CC(O)N(c2cc(Cl)c(C(=O)NC(C)(C)C)cn2)C1=O` (stereo not shown) [Compound A45], the AMARE damage score in the assay with Amaranthus retroflexus [1] and in the assay with Amaranthus retroflexus [3] was 5 each time. Moreover, the ABUTH damage score with Abutilon theophrasti [2] and in the assay with Abutilon theophrasti [4] was 5 in each case. The ECHCG damage score with Echinochloa crus-galli [5] and in the assay with Echinochloa crus-galli [8] was 5 throughout. Besides, the ZEAMX damage score in the assay on Zea mays [6] was determined as 5; in the assay with Zea mays [7] it was 3. Further, the SETFA damage score with Setaria faberi [9] and in the assay on Setaria faberi [12] was 5 throughout.

Consider `CN1CC(O)N(c2cc(C(F)(F)F)c(-c3cccc(C#N)c3)cn2)C1=O` (stereo not shown) [Compound A17], for which the AMARE damage score in the assay on Amaranthus retroflexus [1] and with Amaranthus retroflexus [3] was 5 in each case. Further, the ABUTH damage score with Abutilon theophrasti [2] and with Abutilon theophrasti [4] was 5 in each case. Also, the ECHCG damage score in the assay with Echinochloa crus-galli [5] and in the assay with Echinochloa crus-galli [8] was 5 in each case. Besides, the ZEAMX damage score with Zea mays [7] worked out at 2. In addition, the figures for the SETFA damage score in the assay with Setaria faberi [9] and in the assay with Setaria faberi [12] were 4 and 5, respectively. Besides, the ALOMY damage score in the assay on Alopecurus myosuroides [10] turned out to be 4; in the assay with Alopecurus myosuroides [11], 5.

`CN1CC(O)N(c2cc(C(F)(F)F)c(-c3cnc(C#N)nc3)cn2)C1=O` (stereo not shown) [Compound A27]: the AMARE damage score in the assay on Amaranthus retroflexus [1] and in the assay with Amaranthus retroflexus [3] was 5 each time. For the same molecule, the ABUTH damage score in the assay with Abutilon theophrasti [2] and in the assay with Abutilon theophrasti [4] was 5 in each case. Further, the ECHCG damage score is reported as 5 in the assay with Echinochloa crus-galli [5] and 3 in the assay with Echinochloa crus-galli [8]. The ZEAMX damage score came to 3 with Zea mays [6] and 1 in the assay on Zea mays [7]. The SETFA damage score amounted to 2 with Setaria faberi [9] and 3 in the assay on Setaria faberi [12].

For the molecule `CN1CC(O)N(c2cc(C(F)(F)F)c(-c3cnn(C)c3)cn2)C1=O` (stereo not shown) [Compound A28], the AMARE damage score with Amaranthus retroflexus [1] and with Amaranthus retroflexus [3] was 5 each time. For the same molecule, the ABUTH damage score in the assay with Abutilon theophrasti [2] and in the assay with Abutilon theophrasti [4] was 5 in each case. The ECHCG damage score in the assay with Echinochloa crus-galli [5] and in the assay with Echinochloa crus-galli [8] was 5 throughout. The ZEAMX damage score with Zea mays [6] is on record as 5; in the assay with Zea mays [7], 3. The SETFA damage score with Setaria faberi [9] was 4; with Setaria faberi [12] it was 5.

In the case of `CN1CC(O)N(c2cc(C(F)(F)F)c(-c3cncc(Cl)c3)cn2)C1=O` (stereo not shown) [Compound A22], the AMARE damage score in the assay with Amaranthus retroflexus [1] and with Amaranthus retroflexus [3] was 5 in each case. The ABUTH damage score in the assay with Abutilon theophrasti [2] and with Abutilon theophrasti [4] was 5 throughout. Also, the ECHCG damage score in the assay on Echinochloa crus-galli [5] and in the assay on Echinochloa crus-galli [8] was 5 each time. Further, the results for the ZEAMX damage score with Zea mays [6] and in the assay with Zea mays [7] were 5 and 3, respectively. In addition, the SETFA damage score in the assay on Setaria faberi [9] and with Setaria faberi [12] was 5 throughout.
